Measured values: patent US7811819B2, “Cryopreservation of primate embryonic stem cells” (The University of Washington, priority 2005, dated 2010)

Columns and labels:
H1 hESC [1] = experiment: Toxicity of the DMSO cryoprotectant to hESC without freezing (Group 2 vs control Group 1); type: cell-based, human; conditions: DMSO 10% in freezing medium, straws held 20 minutes at room temperature, not frozen; Group 1 vs. 2; cells grown three days
Procedure: (§1) hESC culture. H1 hESC from passage 51 to 57 (WiCell, Madison, Wis., USA) were cultured in Knockout™ DMEM supplemented with GlutaMAX™ (2 mM), sodium pyruvate (1.0 mM), non-essential amino acids (0.1 mM), penicillin (50 u/ml), streptomycin (50 u/ml), Knockout™ serum replacer (15%) (all from Invitrogen, Carlsbad, Calif., USA) and β-mercaptoethanol (0.1 mM; Sigma, St. Louis, Mo., USA). hESC were grown on gelatinized tissue culture plates seeded with primary mouse embryonic fibroblasts that had been exposed to 3000 Rads γ-irradiation. To passage, cells were washed once with calcium and magnesium free phosphate buffered saline (PBS; Invitrogen, Carlsbad, Calif., USA) and then exposed to 1.2 u/ml dispase (Invitrogen, Carlsbad, Calif., USA) dissolved in PBS supplemented with 10% FBS until colonies began to lift from the plate. The cell layer was washed off the plate and mechanically dispersed using a plugged 9-inch Pasteur pipette or a 5 ml pipette. At this point, cells were divided into tubes for each group. The cells were then pelleted through centrifugation at 1200 rpm for 3 minutes, washed and pelleted again in culture medium (described above). […]
(§2) Calculation of Survival. Survival was calculated as combined colony number and colony size relative to Group 1, which was set at 100% survival. The horizontal diameters of 10 colonies were measured. […]

H1 hESC [2] = experiment: Survival of hESC after slow, controlled-rate freezing and thaw (colony number and colony size relative to untreated control); type: cell-based, human; conditions: sucrose on thaw (cryoprotectant removal); concentration not given
Procedure: as §1, §2

SMILES	toxicity to the hESC (H1 hESC [1])	effect on survival following thaw (H1 hESC [2])
C[S+](C)[O-] [DMSO]	does not appear toxic	–
OC[C@H]1O[C@@](CO)(O[C@H]2O[C@H](CO)[C@@H](O)[C@H](O)[C@H]2O)[C@@H](O)[C@@H]1O [Sucrose]	–	harmful to survival
